Test results taken from PubChem BioAssay (NCI).
“And” between values parts separate entries of the source, which are not always exact repeats. Equal values may be shown once.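 Compound exposure: 48 hours, 5 concentrations, 96-well plates. GI50 is the concentration that inhibits growth by half. Definition used: TGI = concentration required for complete inhibition of growth.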

Experiments:
Assay in all cases: NCI anticancer screen, dose series, 48 h
MDA-MB-435 = test system: MDA-MB-435
NCI/ADR-RES ovarian = test system: NCI/ADR-RES ovarian
HL-60(TB) leukemia = test system: HL-60(TB) leukemia
TK-10 renal = test system: TK-10 renal
MCF7 breast = test system: MCF7 breast
RPMI-8226 leukemia = test system: RPMI-8226 leukemia
SF-268 CNS = test system: SF-268 CNS
UACC-62 melanoma = test system: UACC-62 melanoma
NCI-H522 lung = test system: NCI-H522 lung
SK-MEL-2 melanoma = test system: SK-MEL-2 melanoma

## Cc1ccc2c(-c3ccnc(Nc4ccc5c(c4)OCCO5)n3)c(-c3ccc(C(F)(F)F)cc3)nn2n1
MDA-MB-435
  GI50: 17.2 µM
  TGI: > 25 µM
NCI/ADR-RES ovarian
  GI50: 5.55 µM
  TGI: > 25 µM
HL-60(TB) leukemia
  GI50: 6.81 µM
  TGI: 19.4 µM
TK-10 renal
  GI50: 8.11 µM
  TGI: > 25 µM
MCF7 breast
  GI50: 5.66 µM
  TGI: > 25 µM
RPMI-8226 leukemia
  GI50: 2.13 µM
  TGI: 13.5 µM
SF-268 CNS
  GI50: > 25 µM
  TGI: > 25 µM
UACC-62 melanoma
  GI50: 5.84 µM
  TGI: > 25 µM
NCI-H522 lung
  GI50: 4.57 µM
  TGI: 21.4 µM
SK-MEL-2 melanoma
  GI50: 8.42 µM
  TGI: > 25 µM

## CCN(C)c1nc(N(C)CC)c2nc(N(C)CC)nc(N(C)CC)c2n1
MDA-MB-435
  TGI: > 100 µM
NCI/ADR-RES ovarian
  TGI: > 100 µM
HL-60(TB) leukemia
  TGI: > 100 µM
TK-10 renal
  TGI: > 100 µM
MCF7 breast
  TGI: > 100 µM
RPMI-8226 leukemia
  TGI: > 100 µM
SF-268 CNS
  TGI: > 100 µM
UACC-62 melanoma
  TGI: > 100 µM
NCI-H522 lung
  TGI: > 100 µM
SK-MEL-2 melanoma
  TGI: > 100 µM

## N#Cc1nc2c(S(=O)(=O)c3ccc(Cl)cc3)c(N)n(Nc3cccc(Cl)c3)c2nc1C#N
MDA-MB-435
  GI50: 0.0497 µM
  TGI: 0.379 µM and 0.067 µM
NCI/ADR-RES ovarian
  GI50: 0.0505 µM
  TGI: > 100 µM
HL-60(TB) leukemia
  GI50: 0.0052 µM
  TGI: 0.0871 µM
TK-10 renal
  GI50: 0.0207 µM
MCF7 breast
  GI50: 0.015 µM
RPMI-8226 leukemia
  GI50: 0.00251 µM
  TGI: 0.019 µM and 0.0668 µM
SF-268 CNS
  TGI: > 100 µM
UACC-62 melanoma
  GI50: 0.115 µM
  TGI: 0.336 µM
NCI-H522 lung
  GI50: 0.11 µM
  TGI: 0.449 µM
SK-MEL-2 melanoma
  GI50: 0.105 µM and 0.0126 µM
  TGI: 0.387 µM and 0.0857 µM

## CCn1cc(C(=O)O)c(=O)c2cc(F)c(N3CCN(S(=O)(=O)c4cccc5ccccc45)CC3)cc21
MDA-MB-435
  GI50: 3.13 µM
  TGI: 14.5 µM
NCI/ADR-RES ovarian
  GI50: 3.2 µM
  TGI: > 100 µM
HL-60(TB) leukemia
  GI50: 2.58 µM
  TGI: 6.41 µM
TK-10 renal
  GI50: 7.6 µM
  TGI: > 100 µM
MCF7 breast
  GI50: 2.72 µM
  TGI: 9.04 µM
RPMI-8226 leukemia
  GI50: 2.79 µM
  TGI: 9.73 µM
SF-268 CNS
  GI50: 4.39 µM
  TGI: > 100 µM
UACC-62 melanoma
  GI50: 2.25 µM
  TGI: 7.73 µM
NCI-H522 lung
  GI50: 2.78 µM
  TGI: 8.04 µM
SK-MEL-2 melanoma
  GI50: 3.55 µM
  TGI: 8.72 µM

## Cn1c([N+](=O)[O-])cnc1C=C1C(=O)c2ccccc2C1=O
MDA-MB-435
  GI50: 2.67 µM
  TGI: 11.7 µM
NCI/ADR-RES ovarian
  GI50: 5.34 µM
  TGI: 83.9 µM
HL-60(TB) leukemia
  GI50: 2.27 µM
  TGI: 6.08 µM
TK-10 renal
  GI50: 7.07 µM
  TGI: 21.8 µM
MCF7 breast
  GI50: 3.44 µM
  TGI: 16.2 µM
RPMI-8226 leukemia
  GI50: 3.36 µM
  TGI: 13 µM
SF-268 CNS
  GI50: 3.95 µM
  TGI: 16.7 µM
UACC-62 melanoma
  GI50: 2.04 µM
  TGI: 5.75 µM
NCI-H522 lung
  GI50: 1.89 µM
  TGI: 4.37 µM
SK-MEL-2 melanoma
  GI50: 2.46 µM
  TGI: 6.24 µM

## CC(=O)ON1CCCC(P(=O)(OCOC(=O)C(C)(C)C)OCOC(=O)C(C)(C)C)C1=O (configuration not stated)
MDA-MB-435
  GI50: 2.02 µM
  TGI: 15 µM
NCI/ADR-RES ovarian
  GI50: 0.531 µM
  TGI: 4.21 µM
HL-60(TB) leukemia
  GI50: 0.653 µM
  TGI: 2.87 µM
TK-10 renal
  GI50: 0.977 µM
  TGI: 6.89 µM
MCF7 breast
  GI50: 0.4 µM
  TGI: 2 µM
RPMI-8226 leukemia
  GI50: 0.407 µM
  TGI: 1.89 µM
SF-268 CNS
  GI50: 0.746 µM
  TGI: 6.25 µM
UACC-62 melanoma
  GI50: 0.405 µM
  TGI: 1.74 µM
NCI-H522 lung
  GI50: 0.506 µM
  TGI: 5.63 µM
SK-MEL-2 melanoma
  GI50: 1.58 µM
  TGI: 6.91 µM
